# Test results from patent US20090252754A1, “Vaccines containing the hiv tat protein as an adjuvant for the enhancement of cytotoxic t-cell responses” (priority 2003, published 2009).
# Tests used:
# [1] = system: proteasome subunits (α2, LMP2, LMP7, MECL1) in Jurkat cells; test: Western blot of proteasome subunits in Jurkat cells expressing or treated with Tat, Tat mutants or Tat peptides; type: cell-based, human; settings: Jurkat cells treated for 24 h with 0.1 μg/ml
# Protocol: Jurkat T cells expressing Tat or mutated Tat (referred to as Tat22, wherein a Cys at position 22 is mutated) have previously been described (1). Cells were cultured in a medium supplemented with 800 μg/ml neomycin (Sigma, St. Louise, […].).
# Cells were lysed with glass beads as previously described (4). Supernatants were ultracentrifuged for 1 h at 100,000 g and loaded into an affinity column containing a matrix derivatised with the MCP21 mAb specific for the α2 subunit of the proteasome (Affinity, Exeter, UK). Proteasomes were eluted with 25 mM Tris-HCl pH 7.5 containing 2 M NaCl, and 0.5 ml fractions were collected. Homogeneity of the eluted material was confirmed by analysis of an aliquot by SDS 12% PAGE and Coomassie blue staining of the gel. Fractions containing proteasomes were combined and dialysed against 25 mM Tris-HCl pH 7.5. Protein concentration was determined using the BCA method (Pierce Chemical, Rockford, Ill.).
# Equal amounts of proteins, or equal amounts of purified proteasomes, were loaded on a 12% SDS-PAGE and electro-blotted onto Protran nitrocellulose membranes (Schleicher & Schuell, Keene, Hampshire, USA). Blots were probed with Abs specific for α2, LMP2 LMP7, MECL1, and PA28α subunits (Affinity), and developed by enhanced chemi-luminescence (ECL, Amersham Pharmacia Biotech, Uppsala, SW).
# HIV-1 Env peptide pools = test: Env-specific IFNγ Elispot on splenocytes of immunized mice; type: in vivo, BALB/c mice
# Protocol: C57BL/6 mice (H-2^b) (Harlan Nossan, Udine, I) were immunized subcutaneously, in a single site in the back, with 25 μg of ovalbumin (Sigma) alone or in combination with native monomeric biologically active Tat protein (5 and 10 μg, respectively) in Freund's adjuvant (CFA for the first injection, and IFA for subsequent injections). BALB/c mice (H-2^d) (Harlan, Udine, Italy) were immunized subcutaneously, in a single site in the back, with 5 μg of HIV-1 Gag or Env proteins alone or in combination with 5 μg of native monomeric biologically active Tat protein or with the mutant Tatcys22 protein in Freund's adjuvant or in Alum. Each group was composed of 5 animals. Immunogens were given subcutaneously in 100 μl, at days 1, 14 and 28. Mice were sacrificed 10 days after the last boost (day 38). […]
# Splenocytes were purified from spleens squeezed on filters (Cell Strainer, 70 μm, Nylon, Becton Dickinson). […] Cellular responses were also measured after in vitro re-stimulation. […]
# Elispot (IFN-γ) was carried out using a commercially available kit provided by Becton Dickinson (murine IFNgamma ELISPOT Set; #551083), according to manufacturer's instructions. […] The spots were read using an Elispot reader (Elivis, Germany). The results are expressed as neat number of spot forming units (SFU)/10^6 cells: [mean number SFU of peptide treated wells minus mean number SFU of the negative control]. […]
# [2] = system: ovalbumin epitopes SII, KVV, CFD on EL4 cells; test: Ova-specific CTL responses in vaccinated mice (cytotoxicity against peptide-pulsed EL4 cells); type: in vivo, C57BL/6 mice; settings: fresh splenocytes; 25 μg ovalbumin alone or with 5 and 10 μg Tat, s.c., Freund's adjuvant
# Protocol: Seven- to eight-week old female C57BL/6 mice (H-2^b) (Nossan) were injected with 25 μg ovalbumin (Sigma, St. Louis, Mo.) alone or in combination with native monomeric biologically active Tat protein (5 and 10 μg) and resuspended in degassed sterile PBS in Freund's adjuvant (CFA for the first injection, and IFA for subsequent injections). Control mice were injected with PBS alone in Freund's adjuvant. Samples (100 μl) were given by subcutaneous (s.c.) injection in one site in the back. Each experimental group consisted of five mice, and the experiment was repeated twice. Mice were boosted at day 24. Two weeks after the last injection, animals were anaesthetised i.p., as described above, and sacrificed to collect spleens. Mononuclear cells from individual spleens were purified as described above, pooled and tested in cytotoxic assay against peptide-pulsed EL4 cells.
# C57BL/6 mice (H-2^b) (Harlan Nossan, Udine, I) were immunized subcutaneously, in a single site in the back, with 25 μg of ovalbumin (Sigma) alone or in combination with native monomeric biologically active Tat protein (5 and 10 μg, respectively) in Freund's adjuvant (CFA for the first injection, and IFA for subsequent injections). BALB/c mice (H-2^d) (Harlan, Udine, Italy) were immunized subcutaneously, in a single site in the back, with 5 μg of HIV-1 Gag or Env proteins alone or in combination with 5 μg of native monomeric biologically active Tat protein or with the mutant Tatcys22 protein in Freund's adjuvant or in Alum. Each group was composed of 5 animals. Immunogens were given subcutaneously in 100 μl, at days 1, 14 and 28. Mice were sacrificed 10 days after the last boost (day 38). During the course of the experiments, animals were controlled twice a week at the site of injection and for their general conditions (such as liveliness, food intake, vitality, weight, motility, sheen of hair). No signs of local nor systemic adverse reactions were ever observed in mice receiving the immunogens as compared to control or untreated mice. Animal use was according to European and institutional guidelines.
substance,measurement,setting,value
"1-38: peptide covering amino acids 1-38 of the wild-type sequence of Tat (MEPVDPRLEPWKHPGSQPKTACTNCYCKKCCFHCQVCF; UniProt P04608 1-38, looked up, fragment)",LMP2 expression in total cell lysates,[1],no discernable effect
"21-58: peptide covering amino acids 21-58 of the wild-type sequence of Tat (ACTNCYCKKCCFHCQVCFITKALGISYGRKKRRQRRRA; UniProt P04608 21-58, looked up, fragment)",LMP2 expression in total cell lysates,[1],no discernable effect
47-86: peptide of amino acids 47-86 of wild-type Tat (SEQ ID NO 285) (YGRKKRRQRRRPPQGSQTHQVSLSKQPTSQSRGDPTGPKE; Human immunodeficiency virus),LMP2 expression in total cell lysates,[1],induced down-regulation
"Env: HIV-1 Env protein (gp120 SF162, SEQ ID NO 267) from NIH AIDS Reagent Program",response of fresh splenocytes to Env-derived peptide pools,"HIV-1 Env peptide pools; fresh splenocytes, IFN-γ Elispot (data not shown)",did not respond
same,number of Env-derived peptide pools responded to,HIV-1 Env peptide pools; vaccinated BALB/c mice,8
ovalbumin,recognition of EL4 target cells pulsed with cryptic CFD epitope,[2],did not recognise
same,recognition of EL4 target cells pulsed with immunodominant SII epitope,[2],recognised
same,recognition of EL4 target cells pulsed with subdominant KVV epitope,[2],did not recognise
